Values of other authors, collected in patent publication EP3155636B1, “A PROBE FOR EXTRACTION OF MOLECULES OF INTEREST FROM A SAMPLE” (JP Scientific Limited, priority 2014, dated 2015).

conditions: listed with the MS/MS parameters of 21 WADA controlled substances; source and method not stated

**Q.** Which “Log P” value does the source give for `CC(C)NCC(O)COc1ccc(COCCOC(C)C)cc1` (stereo not drawn) [Bisoprolol] here?
**A.** 2.14

**Q.** Which “Log P” value does the source give for `C=C1C[C@@H]2[C@H](CC[C@]3(C)C(=O)CC[C@@H]23)[C@@]2(C)C=CC(=O)C=C12` [Exemestane] here?
**A.** 3.70

**Q.** For `Cc1cc(SCc2sc(-c3ccc(C(F)(F)F)cc3)nc2C)ccc1OCC(=O)O` [GW501516], which “Log P” value is on record?
**A.** 6.29

**Q.** With `CCN(CC)C(=O)c1cccnc1` [Nikethamide] as the compound, how does the “Log P” value read?
**A.** 0.33

**Q.** With `CC(C)(C)NCC(O)c1ccc(O)c(CO)c1` (stereo not drawn) [Salbutamol] as the compound, how does the “Log P” value read?
**A.** 0.64

**Q.** With `CN(C)CCOc1ccc(/C(=C(/CCCl)c2ccccc2)c2ccccc2)cc1` [Toremifene] as the compound, how does the “Log P” value read?
**A.** 6.80
